From paper PMC7355955, “Validation of Pharmacological Protocols for Targeted Inhibition of Canalicular MRP2 Activity in Hepatocytes Using [^99mTc]mebrofenin Imaging in Rats” (Pharmaceutics, 2020)
pIC50: −log10 of the molar value. Where two headings read alike, the source gives them in different places.

Columns and labels:
human MRP2 = human MRP2 (Homo sapiens, UniProt Q92887); assay: cell-based
Experimental: Stably transfected MDCK-II-MRP2 cells overexpressing human MRP2 were a kind gift from A. Schinkel ([…], The Netherlands). Cells were cultured in a controlled atmosphere at 37 °C, 5% CO2. The culture medium was composed of DMEM Glutamax (Dulbecco’s Modified Eagle Medium, 4.5 g/L D-glucose, pyruvate) supplemented with 10% fetal bovine serum and 1% antibiotics (penicillin and streptomycin 5000 U/mL). MRP2-mediated transport was assessed using the calcein-AM assay. Cells were seeded in 24-well plates (30,000 cells per well) in 500 μL of culture medium. […] After 30 min at 37 °C, the incubation buffer was removed and cell monolayers were rapidly washed with 300 μL of ice-cold buffer (Dulbecco’s phosphate buffered saline + CaCl2 + MgCl2). Cells were then lysed by 10 min of incubation with 500 μL of NaOH (10 mM). […] For each inhibitor, uptake data were normalized to describe the extent of inhibition from 0 to maximal (100%) inhibition.

[1] = test system: hepatic OATP and MRP2 activity; parameters: method as in PMID 23440558; details: cited from earlier work
[2] = test system: hepatic OATP and MRP2 activity; details: rat; lowest doses: DTZ 10 mg/kg s.c., CsA 0.01 mg/kg i.v.
Experimental: [^99mTc]mebrofenin scintigraphy was performed using a clinical SPECT-CT camera (Symbia®, Siemens, Knoxville, TN, USA) with a Low Energy High Resolution (LEHR) collimator. In each session, 3 rats were placed in a row on the scanner bed and catheters were inserted in the caudal vein. Experiments were performed for control conditions or after injection of the different transporter inhibitors. RIF (40 mg/kg intravenously, i.v.) was injected immediately before [^99mTc]mebrofenin as previously described [33]. […] Rats were injected with [^99mTc]mebrofenin (39 ± 4 MBq, i.v.) followed by dynamic planar acquisitions. Acquisitions were terminated by a X-ray CT scan.
Images were analyzed with PMOD® software (version 3.9, PMOD Technologies LLC). Regions of interest (ROI) were manually drawn on the liver, intestine, heart (= image-derived blood curve) and urinary bladder. Corresponding TACs were generated by plotting the mean radioactivity amount in each ROI normalized to the injected dose in each animal (cps/MBq) versus time.

rats = details: rat, in vivo
[3] = mice, lowest tested dose 12.5 mg/kg i.v. followed by 3.12 mg/kg intraperitoneal

Chain of human MRP2 (Q92887 whole entry): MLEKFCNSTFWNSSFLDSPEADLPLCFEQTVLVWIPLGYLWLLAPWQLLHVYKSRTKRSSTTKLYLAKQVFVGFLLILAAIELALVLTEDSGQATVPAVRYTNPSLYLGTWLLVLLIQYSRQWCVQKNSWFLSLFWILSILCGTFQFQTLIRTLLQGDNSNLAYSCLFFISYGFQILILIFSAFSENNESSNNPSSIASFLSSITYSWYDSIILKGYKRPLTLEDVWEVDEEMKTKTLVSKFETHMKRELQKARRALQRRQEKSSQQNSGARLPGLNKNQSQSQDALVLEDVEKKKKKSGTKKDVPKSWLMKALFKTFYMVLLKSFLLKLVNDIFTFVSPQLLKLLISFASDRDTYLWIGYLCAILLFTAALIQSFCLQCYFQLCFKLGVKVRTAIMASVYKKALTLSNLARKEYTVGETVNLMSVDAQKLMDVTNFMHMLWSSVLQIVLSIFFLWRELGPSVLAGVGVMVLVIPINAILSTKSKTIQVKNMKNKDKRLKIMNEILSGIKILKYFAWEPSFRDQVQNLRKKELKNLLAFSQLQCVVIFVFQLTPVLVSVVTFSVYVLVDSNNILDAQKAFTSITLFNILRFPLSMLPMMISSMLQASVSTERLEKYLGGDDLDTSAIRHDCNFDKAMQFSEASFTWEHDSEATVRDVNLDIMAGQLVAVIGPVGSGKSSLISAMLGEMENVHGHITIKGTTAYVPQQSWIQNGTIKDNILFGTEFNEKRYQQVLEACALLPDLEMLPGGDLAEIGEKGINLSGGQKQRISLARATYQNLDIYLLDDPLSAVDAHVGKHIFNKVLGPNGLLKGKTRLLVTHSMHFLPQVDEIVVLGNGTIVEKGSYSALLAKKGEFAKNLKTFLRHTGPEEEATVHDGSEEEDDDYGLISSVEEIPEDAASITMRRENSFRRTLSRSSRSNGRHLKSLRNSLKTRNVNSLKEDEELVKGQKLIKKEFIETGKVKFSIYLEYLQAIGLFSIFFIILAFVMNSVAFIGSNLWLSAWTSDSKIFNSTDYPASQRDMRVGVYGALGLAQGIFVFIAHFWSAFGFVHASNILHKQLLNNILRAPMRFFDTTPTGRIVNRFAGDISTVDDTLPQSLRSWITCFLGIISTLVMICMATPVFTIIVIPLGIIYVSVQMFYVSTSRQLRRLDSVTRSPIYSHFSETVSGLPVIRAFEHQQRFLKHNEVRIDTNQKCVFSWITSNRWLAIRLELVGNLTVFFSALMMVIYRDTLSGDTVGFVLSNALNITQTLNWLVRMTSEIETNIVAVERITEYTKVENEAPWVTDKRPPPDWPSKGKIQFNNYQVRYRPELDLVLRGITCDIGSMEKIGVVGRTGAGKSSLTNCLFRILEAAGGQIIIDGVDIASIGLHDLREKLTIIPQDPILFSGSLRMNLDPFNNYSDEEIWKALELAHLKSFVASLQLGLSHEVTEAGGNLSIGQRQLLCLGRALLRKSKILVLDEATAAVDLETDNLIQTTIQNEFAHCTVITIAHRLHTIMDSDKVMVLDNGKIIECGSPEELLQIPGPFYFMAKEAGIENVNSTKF

SMILES: CO[C@H]1/C=C/O[C@@]2(C)Oc3c(C)c(O)c4c(O)c(c(/C=N/N5CCN(C)CC5)c(O)c4c3C2=O)NC(=O)/C(C)=C\C=C\[C@H](C)[C@H](O)[C@@H](C)[C@@H](O)[C@@H](C)[C@H](OC(C)=O)[C@@H]1C [RIF, rifampicin]
- pIC50 (human MRP2): 3.68
- concentration achieving full MRP2 inhibition (human MRP2; MDCK-II-MRP2 cells, calcein-AM assay): > 500 µM
- change in AUCRbile/liver of [99mTc]mebrofenin (biliary excretion) ([1]; mice, higher doses of RIF): −94%
- change in AUCRbile/liver of [99mTc]mebrofenin (biliary excretion) [1, 3]: −25%
- effect on liver uptake of [99mTc]mebrofenin [1, 3]: did not impact

SMILES: Cc1cc(C)c(NC(=O)CN(CC(=O)[O-])CC(=O)[O-])c(C)c1Br.Cc1cc(C)c(NC(=O)CN(CC(=O)[O-])CC(=O)[O-])c(C)c1Br.[99Tc+4] [[^99mTc]mebrofenin]
- fold decrease in AUCRbile/liver with MRP2-deficiency ([1]; MRP2-deficient mice): ~ 10 fold

SMILES: COc1ccc([C@@H]2Sc3ccccc3N(CCN(C)C)C(=O)[C@@H]2OC(C)=O)cc1 [DTZ, Diltiazem]
- pIC50 (human MRP2): 5.36
- effect on initial liver uptake (AUCRliver/blood 0–3 min) of [99mTc]mebrofenin [2]: did not affect
- tolerance of i.v. doses higher than 3 mg/kg (rats): poor tolerance
- outcome of intravenous injection (rats; iv, 40 mg/kg): lethal
